Test results from paper PMC9046208, “Foldamers reveal and validate therapeutic targets associated with toxic α-synuclein self-assembly” (Nature Communications, 2022).

Assays:
[1] = test system: HEK cells expressing αS-A53T-YFP; test: Inclusion count by confocal imaging, HEK cells αS-A53T-YFP; type: cell-based; details: αS fibers 7 μM aggregated with equimolar SK-129, 24 h
Protocol: The Lipofectamine solution (Lipofectamine+P3000 reagent, Thermo Fisher Scientific, Waltham, MA) was diluted to a ratio of 1:20 (v,v) in the OptiMEM (Fisher Scientific, Pittsburgh, PA) media. Simultaneously, the αS fiber solution (Stock solution conc. = 100 μM) was diluted in OptiMEM media to the desired conc. used for each assay. The αS fiber solution was sonicated for 10 min at r.t., followed by the addition of the Lipofectomine solution (in the OptiMEM media) at 1:1 ratio. Subsequently, this solution was incubated for another 10 min and then added to the HEK cells media with a dilution factor of 10 (10 μL of the combined αS fiber solution+Lipofectomine solution, in 90 μL HEK cells media). […]
We used confocal microscopy imaging to manually count the endogenous inclusions (of αS-A53T-YFP and αS-YFP). […] The counting of inclusions was carried out for six different experiments and for each experiment, 100 cells were counted from at least four different locations from the eight-well plate. The cells were counted manually by counting the number of Hoechst 33342 dye-stained nuclei in the cells. Also, the inclusions in the cells were counted manually at different locations in the eight-well plate.

[2] = Parallel artificial membrane permeability assay (PAMPA); type: in vitro ADME; details: 4% lecithin in dodecane; for permeability Pe: 1x PBS, 500 μM donor, RT, 18 h, UV absorbance
Protocol: A parallel artificial membrane permeability assay (PAMPA) Kit (BioAssay Systems, Hayward, CA) was used to measure the membrane permeability of SK-129 according to the manufacturer’s protocol. Briefly, a 4% lecithin solution (LS) was prepared in dodecane and solubilized with constant sonication for 20 min. Then, 5 µL of LS was placed on the donor plate membranes. A 300 μL 1x PBS buffer was applied to the acceptor plate. The solutions of SK-129 and various permeability controls (Highly soluble, medium soluble and low soluble) molecules were added to donor plates (200 μL and 500 μM). The donor plate was placed in the acceptor plate and incubated at RT for 18 h. Then the solutions were removed from the acceptor plate and placed in a clear-bottom 96-well plate (Corning Inc., Corning, NY) and absorbance was recorded at 360 nm for SK-129 and 275 nm for standards. The permeability was calculated using Eq. 2:2 Pe=C×−ln1−ODA/ODEcm/s Where the permeability rate C is 7.72 × 10^−6, ODA is the absorbance of acceptor solution and ODE is absorbance of equilibrium standard.

membrane permeation [2]: efficiently permeate cell membranes
permeability Pe ([2]; trial 1): 4.75 ×10⁻⁶ cm/s
permeability Pe ([2]; trial 2): 4.45 ×10⁻⁶ cm/s
permeability Pe ([2]; trial 3): 4.64 ×10⁻⁶ cm/s
permeability Pe ([2]; trial 4): 4.65 ×10⁻⁶ cm/s
permeability Pe ([2]; trial 5): 4.64 ×10⁻⁶ cm/s
permeability Pe ([2]; trial 6): 4.36 ×10⁻⁶ cm/s
permeability Pe ([2]; trial 7): 4.67 ×10⁻⁶ cm/s
permeability Pe ([2]; trial 8): 4.79 ×10⁻⁶ cm/s
SMILES: COC(=O)c1cc(OCC(=O)O)c2cccc(NC(=O)c3cc(OC(C)C)c4cccc(NC(=O)c5cc(OCC(=O)O)c6cccc(NC(=O)c7cc(OC(C)C)c8cccc([N+](=O)[O-])c8n7)c6n5)c4n3)c2n1 [SK-129]
inclusions (αS-A53T-YFP or αS-YFP) [1]: A very small number of inclusions
